# Assay results from article PMC11859264, “Discovery of a Novel Multitarget Analgesic Through an In Vivo-Guided Approach” (Pharmaceuticals, 2025).
# Key:
# Dopamine D2L = target: T1, Dopamine D2L (Homo sapiens, UniProt P14416); experiment: Radioligand binding, [3H] Spiperone, Eurofins
# T1 construct: host or cells: CHO cells
# [1] = target: T2, Transporter, Dopamine (DAT) (Homo sapiens, UniProt Q01959); experiment: Radioligand binding, [125I] RTI-55, Eurofins
# T2 construct: host or cells: CHO-S cells
# T2 sequence (Q01959 whole entry): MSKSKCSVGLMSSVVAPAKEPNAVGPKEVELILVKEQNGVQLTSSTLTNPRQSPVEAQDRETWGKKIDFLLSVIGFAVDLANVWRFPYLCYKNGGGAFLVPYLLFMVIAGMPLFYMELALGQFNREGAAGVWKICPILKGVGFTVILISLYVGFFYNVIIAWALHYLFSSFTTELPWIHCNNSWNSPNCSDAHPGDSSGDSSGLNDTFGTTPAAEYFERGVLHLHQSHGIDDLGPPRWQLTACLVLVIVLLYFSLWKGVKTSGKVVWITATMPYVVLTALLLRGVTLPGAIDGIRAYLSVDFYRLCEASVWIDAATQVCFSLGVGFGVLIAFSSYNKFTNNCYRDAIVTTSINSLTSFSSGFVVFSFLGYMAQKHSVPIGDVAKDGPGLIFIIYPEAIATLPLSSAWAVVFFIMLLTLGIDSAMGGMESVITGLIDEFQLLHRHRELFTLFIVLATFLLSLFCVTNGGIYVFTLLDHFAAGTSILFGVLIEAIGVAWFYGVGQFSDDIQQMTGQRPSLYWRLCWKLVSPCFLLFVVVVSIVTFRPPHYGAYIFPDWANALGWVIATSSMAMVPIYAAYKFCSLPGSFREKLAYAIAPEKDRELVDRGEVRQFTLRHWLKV
# Cytotoxicity assay (MTT) = assay type: cell-based; details: mouse, HT-22 hippocampal neuronal cells, HT-22 cells, read-out: cell viability relative to the untreated control group
# Experimental: In the in vitro toxicity study, we initially evaluated the cytotoxic potential of compound 29 using a hippocampal neuronal cell line (HT-22), a commonly used model for assessing neurotoxicity. Cell viability was determined after exposure to compound 29 at a concentration of 10 μM.
# HT-22 (mouse hippocampal cells) were cultured in Dulbecco’s Modified Eagle’s Medium (DMEM, GIBCO) supplemented with 10% (v/v) fetal bovine serum and antibiotics (100 µg/mL penicillin/streptomycin mix) in a humidified atmosphere at 37 °C with 5% CO2. A total of 5000 HT-22 cells per well were seeded into a clear 96-well plate one day prior to the assay. On the day of the experiment, the medium was removed, and the cells were treated with 25 µL of each compound at a concentration of 10 µM. The plates were incubated at 37 °C for 18 h. Subsequently, 15 µL of 3-[4,5-dimethylthiazol-2-yl]-2,5-diphenyltetrazolium bromide (MTT) solution (5 mg/mL) was added to each well, and the plates were incubated for an additional 3 h. The resulting formazan crystals were dissolved in dimethyl sulfoxide (DMSO), and the absorbance at 570 nm was measured using a microplate reader (Sunrise, TECAN). Optical density (OD) values from each well were normalized by subtracting the vehicle control, and cell viability was calculated by considering the signal from the vehicle control as 100%.
# formalin model = experiment: Formalin test in mice (primary in vivo screening and ED50); set-up: species or system ICR male mice
# Experimental: For primary screening, the synthesized compounds were administered to mice via intraperitoneal injection at a dose of 5 mg/kg using the formalin model. The percentage inhibition in the second phase, relative to the vehicle control (DMSO/cremophor EL/distilled water = 10:10:80), was calculated.
# Each compound was assessed using four doses (0.1, 1, 5, and 10 mg/kg) by intraperitoneal injection.
# ICR male mice weighing 23–25 g was purchased from Samtako Korea (Osan, Republic of Korea). ICR mice were housed four per cage in a room with 12 h light–dark cycles. The temperature and relative humidity of the room were maintained at 22 ± 2 °C and 50 ± 5%, respectively. Food and water were available ad libitum. The procedures for animal testing were approved by Medifron Animal Care and Use Committees (Approval number; Medifron 2019-9). Efforts were made to minimize animal suffering and to reduce the number of animals used.
# Mice were randomly assigned to five groups (four per group) and single-dose drugs were administered by intraperitoneal injection. The formalin-induced licking paw test was modified from the method described by Dubuisson and Dennis. Each mouse was acclimated to an acrylic observation chamber for at least 30 min before the injection of formalin. Twenty microliters of 2% formalin were injected subcutaneously into the right side of the hind paw. Each mouse was then placed in an individual clear plastic observational chamber (15 × 15 × 15 cm, volume = […] or 3.375 L), and the pain response was recorded for a period of 30 min. The summation of time (in seconds) spent in licking and biting responses of the injected paw during each 5 min block was measured as an indicator of the pain response. The first period (early phase) was recorded 0–5 min after the injection of formalin, and the second period (late phase) was recorded 20–30 min after the injection. The test compound was administered intraperitoneally 30 min before the formalin injection at […]: 0.1, 1, 5, and 10 mg/kg. The vehicle was DMSO/Cremophor EL/distilled water (10/10/80). The data were expressed as the mean ± standard error of the mean (SEM). Statistical analysis was assessed by one-way analysis of variance (ANOVA) with Bonferroni’s post hoc test. Statistical significance was set at p-value < 0.05, with values of p <0.001 considered highly significant.
# hERG = hERG (Homo sapiens, UniProt Q12809); experiment: in vitro
# Sequence of hERG (Q12809 whole entry): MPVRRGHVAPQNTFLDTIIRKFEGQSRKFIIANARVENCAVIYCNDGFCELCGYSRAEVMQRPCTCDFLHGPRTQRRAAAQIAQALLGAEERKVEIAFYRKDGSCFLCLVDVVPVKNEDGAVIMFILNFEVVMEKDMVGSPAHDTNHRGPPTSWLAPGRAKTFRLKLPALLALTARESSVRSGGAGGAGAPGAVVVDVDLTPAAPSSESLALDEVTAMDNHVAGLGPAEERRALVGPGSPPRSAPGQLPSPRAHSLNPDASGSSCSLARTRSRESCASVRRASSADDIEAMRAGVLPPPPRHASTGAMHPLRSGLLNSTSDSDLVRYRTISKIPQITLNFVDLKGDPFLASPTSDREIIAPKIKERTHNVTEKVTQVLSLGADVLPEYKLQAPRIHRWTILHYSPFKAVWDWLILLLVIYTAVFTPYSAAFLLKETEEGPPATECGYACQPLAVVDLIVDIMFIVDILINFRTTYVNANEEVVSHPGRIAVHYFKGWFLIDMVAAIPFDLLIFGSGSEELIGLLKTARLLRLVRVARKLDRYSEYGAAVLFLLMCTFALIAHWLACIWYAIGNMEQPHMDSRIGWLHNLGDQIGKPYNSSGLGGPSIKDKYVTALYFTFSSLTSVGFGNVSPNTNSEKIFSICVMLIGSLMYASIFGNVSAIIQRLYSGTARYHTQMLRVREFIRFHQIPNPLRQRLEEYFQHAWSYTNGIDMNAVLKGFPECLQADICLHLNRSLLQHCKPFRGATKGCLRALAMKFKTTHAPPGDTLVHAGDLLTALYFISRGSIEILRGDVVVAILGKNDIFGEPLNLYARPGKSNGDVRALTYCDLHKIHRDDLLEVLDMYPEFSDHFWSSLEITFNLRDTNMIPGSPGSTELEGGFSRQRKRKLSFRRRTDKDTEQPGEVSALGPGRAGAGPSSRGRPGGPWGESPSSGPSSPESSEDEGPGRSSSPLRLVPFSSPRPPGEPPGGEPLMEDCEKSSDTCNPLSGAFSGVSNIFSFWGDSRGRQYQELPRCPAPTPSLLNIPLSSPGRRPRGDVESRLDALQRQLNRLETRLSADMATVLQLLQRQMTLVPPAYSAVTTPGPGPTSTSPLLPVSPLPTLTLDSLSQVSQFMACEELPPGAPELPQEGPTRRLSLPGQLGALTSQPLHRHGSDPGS
# CYP2C19 = CYP2C19 (Homo sapiens, UniProt P33261); experiment: in vitro; details: microsomes, pH 7.4, CYP2C19 % of inhibition
# Sequence of CYP2C19 (P33261 whole entry): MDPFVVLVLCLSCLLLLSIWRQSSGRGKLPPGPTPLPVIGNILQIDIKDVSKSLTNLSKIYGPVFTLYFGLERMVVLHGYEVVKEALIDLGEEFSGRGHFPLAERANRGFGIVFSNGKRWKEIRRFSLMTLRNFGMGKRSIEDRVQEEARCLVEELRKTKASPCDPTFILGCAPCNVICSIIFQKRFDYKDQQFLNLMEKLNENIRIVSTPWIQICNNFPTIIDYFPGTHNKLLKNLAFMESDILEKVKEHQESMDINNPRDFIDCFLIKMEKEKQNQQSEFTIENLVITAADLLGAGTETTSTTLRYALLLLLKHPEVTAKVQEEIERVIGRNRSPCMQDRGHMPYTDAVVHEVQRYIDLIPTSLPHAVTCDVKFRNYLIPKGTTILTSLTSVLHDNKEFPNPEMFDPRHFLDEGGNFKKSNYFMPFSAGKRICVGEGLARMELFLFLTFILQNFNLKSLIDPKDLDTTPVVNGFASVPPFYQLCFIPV
# [2] = target: T3, Transporter, Norepinephrine (NET) (Homo sapiens, UniProt P23975); experiment: Radioligand binding, [125I] RTI-55, Eurofins
# T3 construct: host or cells: MDCK cells
# T3 sequence (P23975 whole entry): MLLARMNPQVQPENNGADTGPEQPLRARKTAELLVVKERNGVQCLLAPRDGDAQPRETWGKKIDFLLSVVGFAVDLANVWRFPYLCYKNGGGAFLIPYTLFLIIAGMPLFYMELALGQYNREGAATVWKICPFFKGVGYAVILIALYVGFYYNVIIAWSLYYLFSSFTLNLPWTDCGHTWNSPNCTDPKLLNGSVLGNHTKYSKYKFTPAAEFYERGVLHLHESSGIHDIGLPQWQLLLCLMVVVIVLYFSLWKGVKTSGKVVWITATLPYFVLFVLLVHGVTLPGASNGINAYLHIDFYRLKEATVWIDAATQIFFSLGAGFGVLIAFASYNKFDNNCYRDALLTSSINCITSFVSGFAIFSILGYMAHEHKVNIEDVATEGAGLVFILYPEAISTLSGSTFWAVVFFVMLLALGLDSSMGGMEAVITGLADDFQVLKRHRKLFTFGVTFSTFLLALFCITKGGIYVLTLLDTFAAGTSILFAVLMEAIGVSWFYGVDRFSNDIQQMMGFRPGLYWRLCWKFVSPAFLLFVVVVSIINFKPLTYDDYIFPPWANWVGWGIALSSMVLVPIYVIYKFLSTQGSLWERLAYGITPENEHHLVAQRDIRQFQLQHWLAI
# Serotonin 5-HT2A = Serotonin 5-HT2A (Homo sapiens, UniProt P28223); experiment: Radioligand binding, [3H] Ketanserin, Eurofins
# Sequence of Serotonin 5-HT2A (P28223 whole entry): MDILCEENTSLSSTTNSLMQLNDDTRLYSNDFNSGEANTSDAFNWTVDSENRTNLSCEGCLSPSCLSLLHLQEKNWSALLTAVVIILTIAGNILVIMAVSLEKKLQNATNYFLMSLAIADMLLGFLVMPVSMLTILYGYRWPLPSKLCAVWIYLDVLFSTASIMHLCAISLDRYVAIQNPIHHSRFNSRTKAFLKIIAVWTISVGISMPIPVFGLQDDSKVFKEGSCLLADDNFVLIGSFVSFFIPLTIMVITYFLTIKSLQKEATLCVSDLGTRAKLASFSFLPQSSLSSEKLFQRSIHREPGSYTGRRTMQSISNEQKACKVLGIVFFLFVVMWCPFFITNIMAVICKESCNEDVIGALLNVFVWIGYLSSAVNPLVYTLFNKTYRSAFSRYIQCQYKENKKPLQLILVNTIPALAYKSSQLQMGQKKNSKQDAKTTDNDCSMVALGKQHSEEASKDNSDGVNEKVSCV
# CYP3A4 = CYP3A4 (Homo sapiens, UniProt P08684); experiment: in vitro; details: microsomes, pH 7.4
# Sequence of CYP3A4 (P08684 whole entry): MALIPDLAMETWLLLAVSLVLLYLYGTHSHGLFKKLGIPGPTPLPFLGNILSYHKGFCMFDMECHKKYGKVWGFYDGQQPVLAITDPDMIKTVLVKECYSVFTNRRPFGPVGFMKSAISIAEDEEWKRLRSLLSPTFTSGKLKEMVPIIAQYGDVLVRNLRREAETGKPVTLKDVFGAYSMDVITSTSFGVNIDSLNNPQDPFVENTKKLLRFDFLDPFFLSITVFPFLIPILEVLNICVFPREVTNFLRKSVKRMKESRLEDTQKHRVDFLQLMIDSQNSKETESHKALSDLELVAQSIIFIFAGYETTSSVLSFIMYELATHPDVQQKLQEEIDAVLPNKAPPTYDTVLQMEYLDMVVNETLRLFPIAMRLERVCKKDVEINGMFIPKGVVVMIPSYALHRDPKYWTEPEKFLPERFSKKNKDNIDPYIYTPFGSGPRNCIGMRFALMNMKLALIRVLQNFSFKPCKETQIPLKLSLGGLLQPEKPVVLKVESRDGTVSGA
# [3] = Metabolic stability assay in liver microsomes; assay type: in vitro ADME; details: 30 min
# Experimental: In the in vitro metabolic stability study, the stability of compound 29 was evaluated using liver microsomes derived from both mouse and human sources. The primary objectives of this study were to determine the metabolic clearance rate of compound 29 over a defined time period, enabling an assessment of its intrinsic clearance. Microsomal incubations were performed, and the percentage of intact compound remaining was quantified at specific time points. […] The remaining substrate was quantified using the Nexera XR system (Shimadzu, Japan) and TSQ Vantage mass spectrometer (Thermo, Waltham, MA, USA). […] Metabolites were analyzed using the Multiple Reaction Monitoring (MRM) quantification mode in the Xcalibur software (version 4.4). The experiment was performed in duplicate with variability within 15%. Results were calculated as % remaining by comparing the test compound quantified after a 30 min reaction to the initial value at 0 min.
# T1 sequence (P14416 whole entry): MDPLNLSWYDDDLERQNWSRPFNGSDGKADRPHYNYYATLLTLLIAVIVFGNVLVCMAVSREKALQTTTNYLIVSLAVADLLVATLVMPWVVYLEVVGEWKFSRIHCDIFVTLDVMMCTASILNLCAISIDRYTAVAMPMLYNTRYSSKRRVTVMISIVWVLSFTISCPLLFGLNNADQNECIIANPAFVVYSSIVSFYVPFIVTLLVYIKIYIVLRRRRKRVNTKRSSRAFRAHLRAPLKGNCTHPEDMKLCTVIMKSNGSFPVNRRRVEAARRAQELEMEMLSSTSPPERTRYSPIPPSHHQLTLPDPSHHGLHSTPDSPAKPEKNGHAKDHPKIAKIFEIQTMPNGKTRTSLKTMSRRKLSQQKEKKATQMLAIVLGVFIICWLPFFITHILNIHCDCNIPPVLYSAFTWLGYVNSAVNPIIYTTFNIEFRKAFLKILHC
smiles,measurement,setting,value
"N#Cc1ccc2[nH]cc(C(=O)NCCN3CCN(c4ccc5ccccc5n4)CC3)c2c1 [Compound 29, 5-Cyano-N-(2-(4-(quinolin-2-yl)piperazin-1-yl)ethyl)-1H-indole-3-carboxamide]",nH (Hill coefficient),Dopamine D2L; Dopamine D2L,0.86
same,Ki,"Dopamine D2L; Dopamine D2L, Cheng and Prusoff",1850 nM
same,IC50,"Dopamine D2L; Dopamine D2L, human recombinant CHO cells",5540 nM
same,times the activity of reference compound spiperone,Dopamine D2L; ratio of Ki values,0.02
same,nH (Hill coefficient),[1]; DAT,0.88
same,Ki,"[1]; DAT, Cheng and Prusoff",46 nM
same,IC50,"[1]; DAT, human recombinant CHO-S cells",57 nM
same,times more potent at DAT compared to vanoxerine,[1]; ratio of Ki values,19
same,"viability at 18 h, 10 µM",Cytotoxicity assay (MTT),> 100%
same,ED50,"formalin model; Mus musculus, ip, read-out: ED50 in the second phase of the formalin model",0.78 mg/kg
same,activity in the first phase of the formalin model,"formalin model; mice, intraperitoneal, first phase",relatively weak
same,"inhibition at 4 h, 10 µM",hERG,52.7%
same,"inhibition at 15 min, 10 µM",CYP2C19,< 50%
same,nH (Hill coefficient),[2]; NET,0.73
same,Ki,"[2]; NET, Cheng and Prusoff",380 nM
same,IC50,"[2]; NET, human recombinant MDCK cells",380 nM
same,times more potent at NET compared to desipramine,[2]; ratio of Ki values,3
same,nH (Hill coefficient),Serotonin 5-HT2A; Serotonin 5-HT2A,0.88
same,Ki,"Serotonin 5-HT2A; Serotonin 5-HT2A, Cheng and Prusoff",150 nM
same,IC50,"Serotonin 5-HT2A; Serotonin 5-HT2A, human recombinant CHO-Ki cells",520 nM
same,times the activity of reference compound ketanserin,Serotonin 5-HT2A; ratio of Ki values,1.53
same,"inhibition at 15 min, 10 µM",CYP3A4,78%
same,"remaining at 0.5 h, 1 µM","[3]; pH 7.4, human liver microsomes",55.6%
same,"remaining at 0.5 h, 1 µM","[3]; pH 7.4, mouse liver microsomes",51.2%
